The values that follow come from US9079906B2, “Triazolopyridazines as PAR1 inhibitors, production thereof, and use as medicaments” (Sanofi, priority 2008, dated 2015).

Molecules are shown by their SMILES. Where a name gives a salt, the structure may show the parent alone.

Sequence of PAR1 (P25116 22-425): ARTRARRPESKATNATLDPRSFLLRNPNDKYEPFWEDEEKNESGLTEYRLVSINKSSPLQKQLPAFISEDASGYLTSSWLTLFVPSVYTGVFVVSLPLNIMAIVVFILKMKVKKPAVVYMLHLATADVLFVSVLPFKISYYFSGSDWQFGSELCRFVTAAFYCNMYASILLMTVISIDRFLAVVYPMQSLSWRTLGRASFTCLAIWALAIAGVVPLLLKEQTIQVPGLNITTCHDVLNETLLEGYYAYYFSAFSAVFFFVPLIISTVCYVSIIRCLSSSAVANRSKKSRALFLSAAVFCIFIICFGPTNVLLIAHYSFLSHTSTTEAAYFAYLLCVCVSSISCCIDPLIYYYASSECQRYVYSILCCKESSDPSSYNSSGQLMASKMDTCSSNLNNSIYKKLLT

This test addresses PAR1 (Homo sapiens (Human), UniProt P25116). Briefly: PAR1 binding test (radioligand displacement, membrane preparation). The note with it: human PAR1 expressed in High Five insect cell membranes; radioligand 20 nM; read-out: Inhibition of binding IC50. Here is the method:
The synthesized substances were examined in a PAR1 binding test. This tested whether the substances can inhibit the binding of a radioactively labeled PAR1 agonist known from the literature at the PAR1 receptor (Ho-Sam Ahn, Mol Pharm, 51:350-356, 1997). The human PAR1 receptor was expressed transiently in High Five insect cells. From these cells, after 48 hours, a membrane preparation was produced by standard methods, aliquoted into 10 mM Tris-HCl; 0.3 mM EDTA; 1 mM EGTA; 250 mM sucrose pH 7.5, and stored at −80° C.
The substances were preincubated with the membrane at room temperature for 15 minutes, then the radioligand (ALA-(para-F-Phe)-Arg-ChA-homoArg-(3,4-^3H-Tyr)-NH2; approx. 40 Ci/mMol) was added. The end concentration of the radioligand in the test buffer (50 mM Tris-HCl; 10 mM MgCl2; 1 mM EGTA; 0.1% BSA; 2% DMSO) was 20 nM, that of the membrane 1 mg/ml. After an incubation time of 60 minutes, 25 μL of the mixture were transferred to a 96-well MultiScreenHTS FB microtiter filtration plate (from Millipore), which had been pretreated beforehand with a 0.75% aqueous polyethyleneimine solution for 5 hours at room temperature. Thereafter, with vacuum extraction, each well was washed four times with 300 μL of buffer (50 mM Tris-HCl; 10 mM MgCl2; 1 mM EGTA). The plate was then dried overnight, 100 μl of scintillator per well were added, and the plate was analyzed after 6 hours in a Wallac MicroBeta (from PerkinElmer) liquid scintillation counter. The nonspecific binding was determined in the presence of 100 μM SCH79797 (PAR-1 antagonist; from Tocris, Cat. No. 1592) and subtracted from all measurements. The 100% value used was a control without inhibitor. The % inhibition values of a substance dilution series were used to calculate the IC50 with the aid of nonlinear regression analysis according to the 4-parameter equation.
For orientation: In a radioligand displacement assay an active substance lowers the binding of a labelled ligand.
`CCC(CC)Oc1ccc2nn(CC(=O)c3cc(N4CCOCC4)c(OC)c(C(C)(C)C)c3)c(=N)n2n1` [Example 14, 1-(3-tert-butyl-4-methoxy-5-morpholin-4-ylphenyl)-2-[6-(1-ethylpropoxy)-3-imino-[1,2,4]triazolo[4,3-b]pyridazin-2-yl)ethanone trifluoroacetic acid salt]: the IC50 was determined as 279 nM. For `CCC(CC)Oc1ccc2nn(CC(=O)c3cc(OCC4CC4)cc(C(C)(C)C)c3)c(=N)n2n1` [Example 26, 1-(3-tert-butyl-5-cyclopropylmethoxyphenyl)-2-[6-(1-ethylpropoxy)-3-imino-[1,2,4]triazolo[4,3-b]pyridazin-2-yl]ethanone hydrochloride], the IC50 was determined as 1100 nM. In the case of `CCC(CC)Oc1ccc2nn(CC(=O)c3cc(OCCOC)cc(C(C)(C)C)c3)c(=N)n2n1` [Example 50, 1-[3-tert-butyl-5-(2-methoxy-ethoxy)phenyl]-2-[6-(1-ethylpropoxy)-3-imino-[1,2,4]triazolo[4,3-b]pyridazin-2-yl]ethanone hydrochloride] it was 631 nM. Regarding `COc1c(N2CCOCC2)cc(C(=O)Cn2nc3ccc(Cl)nn3c2=N)cc1C(C)(C)C` [Example 56, 1-(3-tert-butyl-4-methoxy-5-morpholin-4-ylphenyl)-2-(6-chloro-3-imino-[1,2,4]triazolo-[4,3-b]pyridazin-2-yl)-ethanone trifluoroacetic acid salt], the IC50 turned out to be 24000 nM.

For `CCOc1nn2c(=N)n(CC(=O)c3cc(OC)cc(S(F)(F)(F)(F)F)c3)nc2cc1N(CC)CC` [Example 84, 2-(7-diethylamino-6-ethoxy-3-imino-[1,2,4]triazolo[4,3-b]pyridazin-2-yl)-1-[3-methoxy-5-(pentafluorosulfanyl)-phenyl]ethanone trifluoroacetic acid salt], the half-inhibitory concentration (IC50) came out at 9800 nM. With `CCC(CC)Oc1cc(C)c2nn(CC(=O)c3cc(OCCO)cc(C(C)(C)C)c3)c(=N)n2n1` [Example 89, 1-[3-tert-butyl-5-(2-hydroxyethoxy)phenyl]-2-[6-(1-ethylpropoxy)-3-imino-8-methyl-[1,2,4]triazolo[4,3-b]pyridazin-2-yl]ethanone hydrochloride], the IC50 came to 107 nM. For the compound `COCCCOc1cc(C(=O)Cn2nc3c(C)cc(OCCO)nn3c2=N)cc(C(C)(C)C)c1` [Example 101, 1-[3-tert-butyl-5-(3-methoxy-propoxy)phenyl]-2-[6-(2-hydroxyethoxy)-3-imino-8-methyl-[1,2,4]triazolo[4,3-b]pyridazin-2-yl]ethanone hydrochloride], the IC50 was 1400 nM. Consider `CCC(CC)Oc1cc(C)c2nn(CC(=O)c3cc(OCCO)c(OC)c(C(C)(C)C)c3)c(=N)n2n1` [Example 117, 1-[3-tert-butyl-5-(2-hydroxy-ethoxy)-4-methoxyphenyl]-2-[6-(1′-ethylpropoxy)-3-imino-8-methyl-[1,2,4]triazolo[4,3-b]-pyridazin-2-yl]ethanone hydrochloride], for which the 50% inhibitory concentration (IC50) worked out at 98 nM.

With `CCOc1cc(C)c2nn(CC(=O)c3cc(OC(COC)COC)cc(C(C)(C)C)c3)c(=N)n2n1` [Example 127, 1-[3-tert-butyl-5-(2-methoxy-1-methoxymethylethoxy)phenyl]-2-(6-ethoxy-3-imino-8-methyl-[1,2,4]triazolo[4,3-b]pyridazin-2-yl)ethanone hydrochloride], the half-maximal inhibitory concentration (IC50) worked out at 2500 nM.

With `CCOc1nn2c(=N)n(CC(=O)c3cc(N4CCOCC4)c(OC)c(C(C)(C)C)c3)nc2cc1CC` [Example 144, 1-(3-tert-butyl-4-methoxy-5-morpholin-4-ylphenyl)-2-(6-ethoxy-7-ethyl-3-imino-[1,2,4]triazolo[4,3-b]pyridazin-2-yl)ethanone trifluoroacetic acid salt], the IC50 stood at 827 nM. With `CCC(CC)Oc1cc(C)c2nn(CC(=O)c3cc(OCCO)cc(S(F)(F)(F)(F)F)c3)c(=N)n2n1` [Example 161, 2-[6-(1-ethylpropoxy)-3-imino-8-methyl-[1,2,4]triazolo[4,3-b]pyridazin-2-yl]-1-[3-(2-hydroxy-ethoxy)-5-(pentafluorosulfanyl)-phenyl]ethanone trifluoroacetic acid salt], the 50% inhibitory concentration (IC50) worked out at 365 nM. In the case of `CCOc1nn2/c(=N/C)n(CC(=O)c3cc(OCCO)cc(C(C)(C)C)c3)nc2c(C)c1C` [Example 163, 1-[3-tert-butyl-5-(2-hydroxy-ethoxy)phenyl]-2-{6-ethoxy-7,8-dimethyl-3-[(E)-methylimino]-[1,2,4]triazolo[4,3-b]pyridazin-2-yl}ethanone hydrochloride] it was 364 nM. For `CCOc1cc(C(C)(C)O)c2nn(CC(=O)c3cc(OCCCO)c(OC)c(C(C)(C)C)c3)c(=N)n2n1` [Example 168, 1-[3-tert-butyl-5-(3-hydroxy-propoxy)-4-methoxyphenyl]-2-[6-ethoxy-8-(1-hydroxy-1-methyl-ethyl)-3-imino-[1,2,4]triazolo[4,3-b]pyridazin-2-yl]ethanone hydrochloride], the IC50 amounted to 257 nM. With `CCOc1cc(CC)c2nn(CC(=O)c3cc(OCCCO)c(OC)c(C(C)(C)C)c3)c(=N)n2n1` [Example 174, 1-[3-tert-butyl-5-(3-hydroxy-propoxy)-4-methoxyphenyl]-2-(6-ethoxy-8-ethyl-3-imino-[1,2,4]triazolo[4,3-b]pyridazin-2-yl)ethanone hydrochloride], the half-maximal inhibitory concentration (IC50) is 183 nM. On to `CCOc1nn2c(=N)n(CC(=O)c3cc(OCCCCO)c(OC)c(C(C)(C)C)c3)nc2c(C)c1C` [Example 178, 1-[3-tert-butyl-5-(4-hydroxy-butoxy)-4-methoxyphenyl]-2-(6-ethoxy-3-imino-7,8-dimethyl-[1,2,4]triazolo[4,3-b]pyridazin-2-yl)ethanone hydrochloride], for which the concentration for half-maximal inhibition (IC50) was 126 nM. For the compound `CCN(CC)c1nn2c(=N)n(CC(=O)c3cc(OCCCO)c(OC)c(C(C)(C)C)c3)nc2c(C)c1C` [Example 186, 1-[3-tert-butyl-5-(3-hydroxy-propoxy)-4-methoxyphenyl]-2-(6-diethylamino-3-imino-7,8-methyl-[1,2,4]triazolo[4,3-b]pyridazin-2-yl)ethanone hydrochloride], the half-maximal inhibitory concentration (IC50) is 119 nM.

With `CCOc1nn2c(=N)n(CC(=O)c3cc(OCCCO)c(OC)c(C(C)(C)C)c3)nc2c(CC)c1CC` [Example 197, 1-[3-tert-butyl-5-(3-hydroxy-propoxy)-4-methoxyphenyl]-2-(6-ethoxy-7,8-diethyl-3-imino-[1,2,4]triazolo[4,3-b]pyridazin-2-yl)ethanone hydrochloride], the concentration for half-maximal inhibition (IC50) came to 149 nM. In the case of `COc1c(OCCCCO)cc(C(=O)Cn2nc3c(C)cc(OCC4CC4)nn3c2=N)cc1C(C)(C)C` [Example 199, 1-[3-tert-butyl-5-(4-hydroxy-butoxy)-4-methoxyphenyl]-2-(6-cyclopropylmethoxy-3-imino-8-methyl-[1,2,4]triazolo[4,3-b]pyridazin-2-yl)ethanone hydrochloride] it was 206 nM; in that of `CCNC(=O)c1nn2/c(=N/C)n(CC(=O)c3cc(OCCO)c(OC)c(C(C)(C)C)c3)nc2c(C)c1C` [Example 207, N-ethyl-2-{2-[3-tert-butyl-5-(2-hydroxyethoxy)-4-methoxy-phenyl]-2-oxoethyl}-7,8-dimethyl-3-[(E)-methylimino]-2,3-dihydro-[1,2,4]triazolo[4,3-b]pyridazine-6-carboxamide hydrochloride], 174 nM; in that of `Cc1c(OC(C)C)nn2c(=N)n(CC(=O)c3cc(OCCO)cc(C(C)(C)C)c3)nc2c1C` [Example 215, 1-[3-tert-butyl-5-(2-hydroxy-ethoxy)phenyl]-(3-imino-6-isopropoxy-7,8-dimethyl-[1,2,4]triazolo[4,3-b]pyridazin-2-yl)ethanone hydrochloride], 219 nM. As to `CCOc1nn2c(=N)n(CC(=O)c3cc(OCCO)cc(C(C)(C)C)c3)nc2c(CC)c1C` [Example 221, 1-[3-tert-butyl-5-(2-hydroxy-ethoxy)phenyl]-2-(6-ethoxy-8-ethyl-3-imino-7-methyl-[1,2,4]triazolo[4,3-b]pyridazin-2-yl)ethanone hydrochloride], the half-maximal inhibitory concentration (IC50) is 155 nM. Turning to `CCOc1nn2c(=N)n(CC(=O)c3cc(OCCCF)cc(C(C)(C)C)c3)nc2c(C)c1C` [Example 222, 1-[3-tert-butyl-5-(3-fluoro-propoxy)phenyl]-2-(6-ethoxy-3-imino-7,8-dimethyl-[1,2,4]triazolo[4,3-b]pyridazin-2-yl)ethanone hydrochloride], the concentration for half-maximal inhibition (IC50) was 416 nM.

As to `CCOc1nn2c(=N)n(CC(=O)c3cc(C(C)(C)C)cc(C(C)(C)OC)c3)nc2c(C)c1C` [Example 230, 1-[3-tert-butyl-5-(1-methoxy-1-methylethyl)phenyl]-2-(6-ethoxy-3-imino-7,8-dimethyl-[1,2,4]triazolo[4,3-b]pyridazin-2-yl)ethanone hydrochloride], the IC50 was found to be 234 nM.

A word on the IC50: it is the midpoint of a concentration-inhibition curve.
